Values after ≈ are worked out from the molar mass of the structure shown. Active and inactive are the calls of the source. The calls are words filed in the database; no cut-off is given here.
Tests used:
[1] = target: T1, Transitional endoplasmic reticulum ATPase (Homo sapiens, UniProt P55072); test: Inhibition of p97 (unknown origin) ATPase activity by Biomol Green Reagent based microplate reader analysis
Target sequence in this assay (P55072 whole entry): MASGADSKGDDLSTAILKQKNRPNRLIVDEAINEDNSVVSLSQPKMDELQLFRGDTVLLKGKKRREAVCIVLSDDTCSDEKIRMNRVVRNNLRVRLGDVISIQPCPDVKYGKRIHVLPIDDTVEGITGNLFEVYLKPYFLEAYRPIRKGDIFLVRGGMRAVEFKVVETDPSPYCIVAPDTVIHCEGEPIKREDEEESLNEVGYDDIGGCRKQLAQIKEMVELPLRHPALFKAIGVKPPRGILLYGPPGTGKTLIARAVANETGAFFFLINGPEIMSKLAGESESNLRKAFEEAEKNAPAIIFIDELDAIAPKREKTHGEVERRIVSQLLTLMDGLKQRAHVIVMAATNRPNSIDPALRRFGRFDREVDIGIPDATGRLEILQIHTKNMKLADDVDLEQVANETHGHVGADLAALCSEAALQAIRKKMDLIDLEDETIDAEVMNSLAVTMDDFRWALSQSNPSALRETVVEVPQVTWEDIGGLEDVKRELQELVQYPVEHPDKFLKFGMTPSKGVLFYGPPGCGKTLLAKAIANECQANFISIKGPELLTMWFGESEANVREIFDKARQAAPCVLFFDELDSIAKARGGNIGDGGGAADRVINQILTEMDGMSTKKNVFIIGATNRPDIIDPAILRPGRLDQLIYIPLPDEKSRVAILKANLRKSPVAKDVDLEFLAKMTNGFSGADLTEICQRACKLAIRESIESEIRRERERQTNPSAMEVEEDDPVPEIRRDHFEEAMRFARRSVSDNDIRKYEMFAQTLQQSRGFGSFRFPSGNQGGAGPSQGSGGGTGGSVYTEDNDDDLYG

[2] = target: T1, Transitional endoplasmic reticulum ATPase; test: Inhibition of p97 in human HeLa cells expressing UbG76V-GFP/ODD-Luc assessed as accumulation of Ub-GFP incubated for 6 hrs by confocal microscopic analysis; format: cell-based
Target sequence in this assay (P55072 whole entry): as above

[3] = Solubility of compound in PBS incubated for 30 minutes by clear-bottomed UV analysis; format: physicochemical
[4] = Metabolic stability in mouse liver microsome assessed as half life at 1 uM incubated upto 45 mins in presence of NADPH-regenerating system by LC-MS analysis; format: ADME; details: liver microsomes
HCT-116 = test: Cytotoxicity against human HCT-116 cells assessed as reduction in cell viability incubated for 48 hrs by celltiter glo-luminescent assay; format: functional, cell-based; details: HCT-116, 48 h
[5] = target: T1, Transitional endoplasmic reticulum ATPase; test: Inhibition of p97 in human HCT-116 cells assessed as increase in Ub-K48 level at 100 nM incubated for 6 hrs by quantitative sandwich immunoassay method relative to control; format: cell-based
Target sequence in this assay (P55072 2-806 limits assumed): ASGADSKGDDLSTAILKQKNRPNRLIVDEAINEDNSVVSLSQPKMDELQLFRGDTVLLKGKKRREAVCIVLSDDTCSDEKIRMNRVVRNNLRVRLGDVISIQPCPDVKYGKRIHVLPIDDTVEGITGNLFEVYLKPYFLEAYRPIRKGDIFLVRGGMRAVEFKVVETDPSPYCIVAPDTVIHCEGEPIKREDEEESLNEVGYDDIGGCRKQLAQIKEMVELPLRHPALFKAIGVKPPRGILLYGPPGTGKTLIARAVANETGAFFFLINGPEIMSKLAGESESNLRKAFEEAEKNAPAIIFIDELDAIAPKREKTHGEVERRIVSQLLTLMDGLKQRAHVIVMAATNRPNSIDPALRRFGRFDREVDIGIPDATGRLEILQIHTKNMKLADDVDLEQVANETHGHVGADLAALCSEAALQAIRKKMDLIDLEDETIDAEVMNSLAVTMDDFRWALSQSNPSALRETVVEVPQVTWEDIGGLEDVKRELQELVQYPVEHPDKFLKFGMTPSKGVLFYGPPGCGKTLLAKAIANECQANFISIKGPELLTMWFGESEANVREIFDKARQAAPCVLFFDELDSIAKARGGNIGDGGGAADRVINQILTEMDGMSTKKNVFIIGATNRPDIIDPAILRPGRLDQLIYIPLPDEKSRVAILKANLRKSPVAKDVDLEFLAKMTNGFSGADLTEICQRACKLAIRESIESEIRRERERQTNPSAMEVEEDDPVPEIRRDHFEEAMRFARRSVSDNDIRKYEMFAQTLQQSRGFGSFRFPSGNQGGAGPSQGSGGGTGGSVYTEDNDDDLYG

[6] = Solubility of compound at pH 7.4 in PBS by UV/visible spectrophotometer analysis; format: physicochemical
[7] = target: T1, Transitional endoplasmic reticulum ATPase; test: Inhibition of p97 in human HCT-116 cells assessed as increase in caspase-3 level at 1 uM incubated for 24 hrs by quantitative sandwich immunoassay method relative to control; format: cell-based
Target sequence in this assay (P55072 2-806 limits assumed): as above

[8] = Cmax in CD-1 mouse at 50 mg/kg, ip incubated upto 24 hrs by LC-MS/MS analysis; format: ADME, organism-based; set-up: time < 24 hrs, dose 50 mg/kg, route ip; details: in vivo
[9] = Cmax in CD-1 mouse at 50 mg/kg, po incubated upto 24 hrs by LC-MS/MS analysis; format: ADME, organism-based; set-up: dose 50 mg/kg, time < 24 hrs, route po; details: in vivo
[10] = AUClast in CD-1 mouse at 5 mg/kg, iv incubated upto 24 hrs by LC-MS/MS analysis; format: ADME, organism-based; set-up: dose 5 mg/kg, time < 24 hrs, route iv; details: in vivo
[11] = AUClast in CD-1 mouse at 50 mg/kg, ip incubated upto 24 hrs by LC-MS/MS analysis; format: ADME, organism-based; set-up: time < 24 hrs, dose 50 mg/kg, route ip; details: in vivo
[12] = AUClast in CD-1 mouse at 50 mg/kg, po incubated upto 24 hrs by LC-MS/MS analysis; format: ADME, organism-based; set-up: time < 24 hrs, dose 50 mg/kg, route po; details: in vivo
[13] = Volume of distribution at steady state in CD-1 mouse at 5 mg/kg, iv incubated upto 24 hrs by LC-MS/MS analysis; format: ADME, organism-based; details: in vivo, read-out: Vdss
[14] = Half life in CD-1 mouse at 5 mg/kg, iv incubated upto 24 hrs by LC-MS/MS analysis; format: ADME, organism-based; details: in vivo
[15] = Half life in CD-1 mouse at 50 mg/kg, ip incubated upto 24 hrs by LC-MS/MS analysis; format: ADME, organism-based; details: in vivo
[16] = Half life in CD-1 mouse at 50 mg/kg, po incubated upto 24 hrs by LC-MS/MS analysis; format: ADME, organism-based; details: in vivo
[17] = Clearance in CD-1 mouse at 5 mg/kg, iv incubated upto 24 hrs by LC-MS/MS analysis; format: ADME, organism-based; details: in vivo
[18] = Oral bioavailability in CD-1 mouse at 50 mg/kg incubated upto 24 hrs by LC-MS/MS analysis; format: ADME, organism-based; details: in vivo
[19] = target: T1, Transitional endoplasmic reticulum ATPase; test: Inhibition of p97 in human HCT-116 cells assessed as increase in caspase-3 level at 0.04 to 6 uM pretreated for 2 hrs followed by washout and measured after 6 to 24 hrs by quantitative sandwich immunoassay method; format: cell-based; details: dose 0.04-6 µM
Target sequence in this assay (P55072 2-806 limits assumed): as above

SMILES	IC50 [1] [nM]	EC50 [2] [nM]	solubility at 0.5 h [3] [µM]	half-life at […], 1 µM [4] [min]	IC50 (HCT-116) [nM]	also measured
Cc1cc(OCc2nnc(SC3CCCC=C3F)n2-c2cccnc2)ccc1-c1ccc(S(C)(=O)=O)cc1 (centres undefined)	320	> 40000	9 (≈ 4.96 µg/mL)	13	–	–
Cc1cc(OCc2nnc(SC3C=CCCC3)n2-c2cccnc2)ccc1C#CCOC(=O)N1CCN(C)CC1 (centres undefined)	29	1800	–	< 10	2400	–
Cc1cc(OCc2nnc(SC3C=CCCC3)n2-c2cccnc2)ccc1C#CCNC(=O)OC(C)(C)C (centres undefined)	150	11000	92 (≈ 48.9 µg/mL)	7	–	–
CN1CCC(NC(=O)OCC#Cc2c(F)cc(OCc3nnc(SC4C=CCCC4)n3-c3cccnc3)cc2F)CC1 (centres undefined)	11	360	–	–	730	inhibition [5]: 123%
[2H]C1([2H])C([2H])([2H])C([2H])([2H])C([2H])(Sc2nnc(COc3ccc(-c4ccc(S(C)(=O)=O)cc4)c(C)c3)n2-c2cccnc2)C1([2H])[2H]	–	–	29 (≈ 15.4 µg/mL)	6	–	–
Cc1cc(OCc2nnc(SC3CCCC3)n2-c2cccnc2)ccc1-c1ccc(S(C)(=O)=O)cc1	–	–	–	9	–	–
CN1CCC(NC(=O)OCC#Cc2cc(F)c(OCc3nnc(S[C@H]4C=CCCC4)n3-c3cccnc3)cc2F)CC1	–	–	–	5	340	solubility [6]: 74 µM (≈ 44 µg/mL); inhibition [7]: Active; Cmax [8]: 12700 ng/mL; Cmax [9]: 366 ng/mL; AUC(0-t) at 24 h [10]: 371 ng·h/mL; AUC(0-t) at 24 h [11]: 9290 ng·h/mL; AUC(0-t) at 24 h [12]: 601 ng·h/mL; Vd [13]: 5.9 L/kg; half-life [14]: 41.4 min; half-life [15]: 96 min; half-life [16]: 126 min; clearance [17]: 234 mL/min/kg; bioavailability [18]: 17%; inhibition [19]: Active
Cc1cc(OCc2nnc(SC3C=CCCC3)n2-c2cccnc2)ccc1C#CCNC1CCN(C)CC1 (centres undefined)	41	1500	130 (≈ 68.7 µg/mL)	8	–	–
Cc1cc(OCc2nnc(SC3C=CCCC3)n2-c2cccnc2)ccc1C#CCO (centres undefined)	40	1300	39 (≈ 16.9 µg/mL)	1.2	4700	solubility [6]: 39 µM (≈ 16.9 µg/mL)
CCC(=O)NCC#Cc1ccc(OCc2nnc(SC3C=CCCC3)n2-c2cccnc2)cc1C (centres undefined)	32	1900	–	–	–	–
Cc1cc(OCc2nnc(SC3CCC(F)(F)CC3)n2-c2cccnc2)ccc1-c1ccc(S(C)(=O)=O)cc1	300	> 40000	110 (≈ 62.8 µg/mL)	< 10	–	–
Cc1cc(OCc2nnc(SC3CCCCC3)n2-c2cccnc2)ccc1-c1ccc(S(C)(=O)=O)cc1	60	2400	170 (≈ 90.9 µg/mL)	8	–	–
Cc1cc(OCc2nnc(SC3CCOCC3)n2-c2cccnc2)ccc1-c1ccc(S(C)(=O)=O)cc1	460	47000	150 (≈ 80.5 µg/mL)	< 10	–	–
Cc1cc(OCc2nnc(SC3C=CCCC3)n2-c2cccnc2)ccc1C#CCOC(=O)NCCN1CCN(C)CC1 (centres undefined)	21	890	–	8	2800	–
[2H]C1([2H])C([2H])([2H])C([2H])([2H])C([2H])(Sc2nnc(COc3cc(F)c(C#CCOC(=O)NC4CCN(C)CC4)cc3F)n2-c2cccnc2)C1([2H])[2H]	9.7	640	–	8	1370	solubility [6]: 83 µM (≈ 49.1 µg/mL)
Cc1cc(OCc2nnc(SC3C=CCCC3)n2-c2cccnc2)ccc1C#CCOC(=O)NC1CCN(C)CC1 (centres undefined)	23	820	61 (≈ 34.9 µg/mL)	7	2100	solubility [6]: 61 µM (≈ 34.9 µg/mL)
Cc1cc(OCc2nnc(SC3CCNCC3)n2-c2cccnc2)ccc1-c1ccc(S(C)(=O)=O)cc1	> 6000	> 40000	370 (≈ 198 µg/mL)	> 60	–	–
Cc1cc(OCc2nnc(SC3C=CCCC3)n2-c2cccnc2)ccc1C#CCN (centres undefined)	–	4500	53 (≈ 22.9 µg/mL)	24	–	–
CN1CCN(CCNC(=O)OCC#Cc2ccc(OCc3nnc(SC4C=CCCC4)n3-c3cccnc3)cc2F)CC1 (centres undefined)	–	820	–	4	1350	solubility [6]: 60 µM (≈ 36.3 µg/mL)
CN1CCC(NC(=O)OCC#Cc2cc(F)c(OCc3nnc(S[C@@H]4C=CCCC4)n3-c3cccnc3)cc2F)CC1	–	–	–	–	4740	–
CN1CCC(NC(=O)OCC#Cc2ccc(OCc3nnc(SC4C=CCCC4)n3-c3cccnc3)c(F)c2F)CC1 (centres undefined)	–	1300	–	8	3200	solubility [6]: 54 µM (≈ 32.1 µg/mL)
Cc1cc(OCc2nnc(SC3C=CCCC3)n2-c2cccnc2)ccc1C#CCNS(C)(=O)=O (centres undefined)	–	2700	–	7	–	–
Cc1cc(OCc2nnc(SC3C=CCCC3)n2-c2cccnc2)ccc1C#CCNC(C)C (centres undefined)	–	2700	–	8	–	–
COCCSc1nnc(COc2ccc(-c3ccc(S(C)(=O)=O)cc3)c(C)c2)n1-c1cccnc1	2010	> 40000	260 (≈ 133 µg/mL)	13	–	–
CN1CCC(NC(=O)OCC#Cc2cc(F)c(OCc3nnc(SC4C=CCCC4)n3-c3cccnc3)cc2F)CC1 (centres undefined)	–	–	–	3	850	solubility [6]: 71 µM (≈ 42.2 µg/mL); inhibition [5]: 133%
Cc1cc(OCc2nnc(SC3C=CCCC3)n2-c2cccnc2)ccc1-c1ccc(S(C)(=O)=O)cc1 (centres undefined)	34	940	140 (≈ 74.6 µg/mL)	< 10	–	–
Cc1cc(OCc2nnc(SC3C=CCCC3)n2-c2cccnc2)ccc1C#CCNS(=O)(=O)c1ccc(F)cc1 (centres undefined)	–	> 40000	24 (≈ 14.2 µg/mL)	9	–	–

— ChEMBL document CHEMBL5360600, “Optimization of 1,2,4-Triazole-Based p97 Inhibitors for the Treatment of Cancer” (ACS Med Chem Lett, 2023)
